Measurements: the supplement of paper PMC7287046

How the values were obtained:
Conditions in all cases: exposure time: 72 h
U251 [1] = assay: Chou-Talalay combination index (dimensionless); higher = less synergy (more antagonism)
Method: (§1)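 Glioma cell lines were treated for 72 h with a 6x6 matrix of two drugs, each in twofold dilutions with the top dose at the single-drug IC50. Viability was read by CellTiter-Glo and normalised to DMSO controls, in triplicate. The Chou-Talalay combination index was computed by the median effect principle; CI < 0.8 means synergy.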

KNS42 = assay: as above
Method: as §1

SNB75 [2] = assay: as above
Method: as §1

U118 [3] = assay: as above
Method: as §1

SF539 [4] = assay: as above
Method: as §1

T98 = assay: as above
Method: as §1

U87 [5] = assay: as above
Method: as §1

AM38 = assay: as above
Method: as §1

SF268 [6] = assay: as above
Method: as §1

U251 [7] = assay: Bliss synergy score (Combenefit); higher = more synergy; extreme values may be limits of the assay
Method: (§2)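 The same 6x6 dose matrices of drug pairs on glioma cell lines (72 h, CellTiter-Glo viability normalised to DMSO, triplicate) were scored with Combenefit. The Loewe, Bliss and HSA synergy scores are given; paper thresholds are Loewe 7.8 and Bliss 2.5.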

SNB75 [8] = assay: as above
Method: as §2

T98G [9] = assay: as above
Method: as §2

U118 [10] = assay: as above
Method: as §2

KNS-42 [11] = assay: as above
Method: as §2

SF539 [12] = assay: as above
Method: as §2

AM-38 [13] = assay: as above
Method: as §2

U87 [14] = assay: as above
Method: as §2

SF268 [15] = assay: as above
Method: as §2

U251 [16] = assay: Loewe synergy score (Combenefit); higher = more synergy; extreme values may be limits of the assay
Method: as §2

SNB75 [17] = assay: as above
Method: as §2

T98G [18] = assay: as above
Method: as §2

U118 [19] = assay: as above
Method: as §2

KNS-42 [20] = assay: as above
Method: as §2

SF539 [21] = assay: as above
Method: as §2

AM-38 [22] = assay: as above
Method: as §2

U87 [23] = assay: as above
Method: as §2

SF268 [24] = assay: as above
Method: as §2

U251 [25] = assay: HSA synergy score (Combenefit); higher = more synergy
Method: as §2

SNB75 [26] = assay: as above
Method: as §2

T98G [27] = assay: as above
Method: as §2

U118 [28] = assay: as above
Method: as §2

KNS-42 [29] = assay: as above
Method: as §2

SF539 [30] = assay: as above
Method: as §2

AM-38 [31] = assay: as above
Method: as §2

U87 [32] = assay: as above
Method: as §2

SF268 [33] = assay: as above
Method: as §2

| SMILES | Chou-Talalay combination index (U251 [1]) | Chou-Talalay combination index (KNS42) | Chou-Talalay combination index (SNB75 [2]) | Chou-Talalay combination index (U118 [3]) | Chou-Talalay combination index (SF539 [4]) | Chou-Talalay combination index (T98) | Chou-Talalay combination index (U87 [5]) | Chou-Talalay combination index (AM38) | Chou-Talalay combination index (SF268 [6]) | Bliss synergy score (U251 [7]) | Bliss synergy score (SNB75 [8]) | Bliss synergy score (T98G [9]) | Bliss synergy score (U118 [10]) | Bliss synergy score (KNS-42 [11]) | Bliss synergy score (SF539 [12]) | Bliss synergy score (AM-38 [13]) | Bliss synergy score (U87 [14]) | Bliss synergy score (SF268 [15]) | Loewe synergy score (U251 [16]) | Loewe synergy score (SNB75 [17]) | Loewe synergy score (T98G [18]) | Loewe synergy score (U118 [19]) | Loewe synergy score (KNS-42 [20]) | Loewe synergy score (SF539 [21]) | Loewe synergy score (AM-38 [22]) | Loewe synergy score (U87 [23]) | Loewe synergy score (SF268 [24]) | HSA synergy score (U251 [25]) | HSA synergy score (SNB75 [26]) | HSA synergy score (T98G [27]) | HSA synergy score (U118 [28]) | HSA synergy score (KNS-42 [29]) | HSA synergy score (SF539 [30]) | HSA synergy score (AM-38 [31]) | HSA synergy score (U87 [32]) | HSA synergy score (SF268 [33]) |
| --- | --- | --- | --- | --- | --- | --- | --- | --- | --- | --- | --- | --- | --- | --- | --- | --- | --- | --- | --- | --- | --- | --- | --- | --- | --- | --- | --- | --- | --- | --- | --- | --- | --- | --- | --- | --- |
| C#Cc1cccc(Nc2ncnc3cc(OCCOC)c(OCCOC)cc23)c1 [Erlotinib] + N#CC(c1ccnc(NCCc2cccnc2)n1)c1nc2ccccc2s1 [AS601245] | 0.946 | 0.914 | 1.07 | 1.02 | 1.01 | 0.621 | 3 | 1.25 | 0.948 | 0 | 0 | 0.855 | 0 | 0.447 | 0.186 | 0 | 0 | 0.0526 | 2.04 | 0.0161 | 3.11 | 2.58 | 1.56 | 0.448 | 0 | 0 | 0.12 | 3.14 | 1.2 | 3.77 | 3.12 | 2.81 | 2.83 | 0 | 0 | 2.63 |
| C#Cc1cccc(Nc2ncnc3cc(OCCOC)c(OCCOC)cc23)c1 [Erlotinib] + O=c1[nH]c2ccccc2n1C1CCN(Cc2ccc(-c3[nH]c4cc5ncnc5cc4nc3-c3ccccc3)cc2)CC1 [Akt inhibitor VIII] | 0.526 | 0.754 | 0.763 | 0.807 | 0.906 | 0.775 | 1.26 | 0.914 | 0.97 | 12.6 | 10.2 | 0.127 | 4.68 | 7.67 | 0.771 | 0 | 0 | 1.25 | 10.4 | 4.44 | 1.87 | 7.49 | 12.3 | 7.22 | 0 | 0 | 3.87 | 13.6 | 13.2 | 6.87 | 17 | 14 | 9.63 | 0 | 0.0775 | 10.1 |
| Nc1ccn([C@@H]2O[C@H](CO)[C@@H](O)C2(F)F)c(=O)n1 [Gemcitabine] + C=CCc1cccc(/C=N/NC(=O)CN2CCN(Cc3ccccc3)CC2)c1O [PAC-1] | 0.722 | 0.675 | 0.978 | 0.999 | 0.863 | 0.935 | 1.06 | 1 | 0.965 | 0.174 | 0.278 | 0.518 | 0 | 0.716 | 0.236 | 0 | 0 | 0.0746 | 0.777 | 0.834 | 0.986 | 0 | 21.9 | 0.062 | 0.966 | 0 | 0.48 | 1.09 | 5.49 | 3.73 | 1.58 | 22.7 | 3.14 | 0.966 | 0 | 3.55 |
| Nc1ccn([C@@H]2O[C@H](CO)[C@@H](O)C2(F)F)c(=O)n1 [Gemcitabine] + CCOc1nc(NC(=O)Cc2cc(OC)ccc2OC)cc(N)c1C#N [JNK inhibitor VIII] | 1.16 | 0.946 | 0.913 | 1.03 | 0.933 | 0.958 | 0.631 | 1.14 | 1.03 | 0 | 0.369 | 0.133 | 0 | 0.163 | 0.139 | 0 | 5.17 | 0.306 | 0 | 2.33 | 0.133 | 0.043 | 0.883 | 0.162 | 0 | 22.2 | 0.121 | 0 | 5.13 | 0.133 | 0.0469 | 0.883 | 2.34 | 0 | 22.2 | 0.909 |
| Nc1ccn([C@@H]2O[C@H](CO)[C@@H](O)C2(F)F)c(=O)n1 [Gemcitabine] + CO[C@H]1C[C@@H]2CC[C@@H](C)[C@@](O)(O2)C(=O)C(=O)N2CCCC[C@H]2C(=O)O[C@H]([C@H](C)C[C@@H]2CC[C@@H](O)[C@H](OC)C2)CC(=O)[C@H](C)/C=C(\C)[C@@H](O)[C@@H](OC)C(=O)[C@H](C)C[C@H](C)/C=C/C=C/C=C/1C [Rapamycin] | 0.677 | 1.04 | 0.95 | 0.654 | 0.669 | 1.13 | 0.683 | 0.998 | 0.786 | 0.62 | 1.41 | 0 | 2.62 | 0 | 4.47 | 0.0506 | 1.89 | 6.03 | 4.63 | 4.52 | 1.27 | 22 | 0.0119 | 16.9 | 0.0506 | 10 | 18.1 | 4.63 | 4.52 | 1.52 | 23 | 0.15 | 18.2 | 0.0506 | 10 | 18.5 |
| Nc1ccn([C@@H]2O[C@H](CO)[C@@H](O)C2(F)F)c(=O)n1 [Gemcitabine] + C[C@@H](Oc1cc(-c2cnn(C3CCNCC3)c2)cnc1N)c1c(Cl)ccc(F)c1Cl [Crizotinib] | 0.752 | 0.783 | 0.899 | 0.987 | 0.801 | 1.03 | 1.25 | 0.719 | 0.954 | 0.679 | 4.81 | 0 | 0.063 | 0 | 0.0351 | 0.116 | 0 | 0.175 | 2.98 | 5.91 | 0 | 0.443 | 0.0765 | 0 | 3.12 | 0.0421 | 0.179 | 7.75 | 7.67 | 0 | 0.488 | 1.25 | 2.44 | 3.33 | 0.0446 | 1.93 |
| Nc1ccn([C@@H]2O[C@H](CO)[C@@H](O)C2(F)F)c(=O)n1 [Gemcitabine] + Cc1cc([C@@H](C)Nc2ccccc2C(=O)O)c2nc(N3CCOCC3)cc(=O)n2c1 [AZD6482] | 0.758 | 0.868 | 0.607 | 0.887 | 0.738 | 0.889 | 1.15 | 0.967 | 0.783 | 1.85 | 0 | 3.93 | 1.86 | 2.32 | 0.274 | 0.237 | 0 | 0.693 | 1.85 | 3.53 | 5.66 | 2.14 | 5.37 | 2.33 | 3.23 | 0 | 1.75 | 1.85 | 4.1 | 10.5 | 10.3 | 5.37 | 10.4 | 4.54 | 0 | 7.02 |
| C=CCc1cccc(/C=N/NC(=O)CN2CCN(Cc3ccccc3)CC2)c1O [PAC-1] + CCOc1nc(NC(=O)Cc2cc(OC)ccc2OC)cc(N)c1C#N [JNK inhibitor VIII] | 0.85 | 0.944 | 0.91 | 0.622 | 0.58 | 0.982 | 0.794 | 0.965 | 0.951 | 2.01 | 0.0865 | 0 | 0.51 | 0 | 3.99 | 0 | 0.501 | 1.09 | 0.13 | 5.04 | 1.34 | 2.38 | 7.1 | 2.49 | 0.484 | 4.97 | 0.606 | 3.65 | 6.97 | 3.49 | 2.56 | 11.2 | 7.4 | 3.74 | 5.02 | 5.39 |
| C=CCc1cccc(/C=N/NC(=O)CN2CCN(Cc3ccccc3)CC2)c1O [PAC-1] + Cc1cc([C@@H](C)Nc2ccccc2C(=O)O)c2nc(N3CCOCC3)cc(=O)n2c1 [AZD6482] | 0.847 | 0.882 | 0.976 | 0.962 | 1.01 | 0.865 | 0.635 | 0.845 | 0.979 | 1.75 | 10.9 | 5.94 | 0.918 | 2.36 | 0 | 8.49 | 2.96 | 0.355 | 1.75 | 14.6 | 10.2 | 1.77 | 2.36 | 0.0112 | 10.2 | 2.96 | 0.594 | 1.75 | 21.4 | 11.9 | 4.06 | 2.36 | 0.0112 | 10.7 | 2.96 | 4.9 |
